Source: PMC5884943, “Discovery of Novel Inhibitors of Indoleamine 2,3-Dioxygenase 1 Through Structure-Based Virtual Screening” (Frontiers in Pharmacology, 2018)
pIC50: −log10 of the molar value. Where two headings read alike, the source gives them in different places.

Columns and labels:
IDO1 in HeLa cells = target: T1, IDO1 in HeLa cells (Homo sapiens, UniProt P14902); test: HeLa cellular IDO1 assay (kynurenine OD 480 nm after IFN-γ); format: cell-based; conditions: IDO1 inhibition in HeLa cells, 48 h
T1 construct: endogenous in cells; host or cells: HeLa (ATCC CCL-2), stimulated with recombinant human IFN-γ
Description: We chose HeLa cell line (ATCC, Cat. No. CCL-2, 4965442) to detect whether our compounds could inhibit IDO activity at cellular level by optical density (OD) assay. The assay was performed in 96-well flat bottom plate (CORNING, Cat. No. 3903) seeded with 5,000 cells in a final volume of 100 μL. Each well 80 μL HeLa cells were incubated overnight at 37°C in EMEM (Invitrogen, Cat. No. 11095098) supplemented with 10% FBS (Invitrogen, Cat. No. 10099-141, Lot. No. 8153379). Then compounds that have been serial diluted were added in corresponding well and 10 μL Recombinant Human IFN-γF (Peprotech, Cat. No. 300-02) was added in each well except wells for Min (Medium containing 0.5% DMSO with cells). The mixture of cells were incubated at 37°C, 5% CO2 for 48 h. Then transferred 90 μL of supernatant to 96-well plate (CORNING, Cat. No. 3599) and store at −20°C fridge for colormetric analysis. The next day, 10 μL of 6.1 N trichloroacetic acid (Sigma, Cat. No. T0699) were added in each well after transferred 80 μL supernatant to 96-well plate (CORNING, Cat. No. 3894). Then the mixture was incubated at 50°C for 30 min. Sediments were removed by centrifuged for 10 min at 2,500 rpm. Seventy microliters of 70 μL of 2% (w/v) p-dimethylaminobenzaldehyde (Sigma-Aldrich, Cat. No. 15647-7) was added after 70 μL of the supernatant were transferred to assay plate (CORNING, Cat. No. 3635). Finally, OD-value was measured at 480 nm using an EnSpire (PE).

human IDO1 protein = target: T2, human IDO1 protein (Homo sapiens, UniProt P14902); test: Enzymatic IDO1 assay (Absorbance 321 assay); format: biochemical; conditions: for inhibition at 20 µM / Inhibition ratio (%) @ 20 μM: 20 μM compound; for inhibition at 20 µM: read-out: Inhibition ratio (%) @ 20 μM; for pIC50: IDO1 enzymatic level; for Avg_Inh (%) @ 50uM: average inhibition, Table S2; for Background (%): background signal of the compound in the absorbance assay
T2 construct: purchased ChemPartner Lot; No. 20160706
Description: The standard assay mixture contained modified potassium phosphate buffer at pH 6.5, 100 μM L-tryptophan (Sigma, Cat. […] No. […]). […] Then the assay plate was read at OD321 kinetically in Spectramax. […] Fit the data in […]5.0 software to obtain IC50-values using Equation (2): (2) Y=Bottom+Top-Bottom/1+10^(logIC50-X)×HillSlope where Y stands for inhibition percentage and X stands for compound concentration. All determinations were carried out in duplicate.

IDO1 = conditions: Figure 1, published IDO1 inhibitors, cited from earlier work

T2 sequence (P14902 whole entry): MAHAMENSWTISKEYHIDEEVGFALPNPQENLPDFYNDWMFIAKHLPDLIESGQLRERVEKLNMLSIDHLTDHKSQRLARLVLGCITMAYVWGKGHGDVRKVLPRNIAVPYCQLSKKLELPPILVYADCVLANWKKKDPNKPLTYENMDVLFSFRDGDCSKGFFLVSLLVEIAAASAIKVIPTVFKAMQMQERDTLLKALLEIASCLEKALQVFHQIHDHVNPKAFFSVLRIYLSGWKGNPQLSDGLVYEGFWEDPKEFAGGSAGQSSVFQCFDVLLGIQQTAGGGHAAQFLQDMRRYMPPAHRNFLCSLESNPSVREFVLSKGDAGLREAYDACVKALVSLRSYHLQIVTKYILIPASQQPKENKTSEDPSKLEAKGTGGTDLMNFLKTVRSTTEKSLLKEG
T1 sequence (P14902 whole entry): as above

Row | SMILES | Avg_Inh (%) @ 50uM (human IDO1 protein) | Background (%) (human IDO1 protein) | other results
1 | Cc1ccc([N+](=O)[O-])cc1N1COc2ccc3ccccc3c2C1 [DC-I02804] | – | – | pIC50 (IDO1 in HeLa cells): 4.01; inhibition at 20 µM (human IDO1 protein): 39.1%; pIC50 (human IDO1 protein): 4.56
2 | Cc1ccc(-c2csc3nnc(SCC(=O)Nc4ccc5c(c4)OCO5)n23)cc1 [Amg-1] | – | – | pIC50 (IDO1; ref Meininger et al., 2011): 4.44
3 | O=C(NC(=S)Nc1c(O)ccc2ccccc12)c1ccccc1Br [DC-I02808] | – | – | pIC50 (IDO1 in HeLa cells): 4.33; inhibition at 20 µM (human IDO1 protein): 61.3%; pIC50 (human IDO1 protein): 4.75
4 | CC(Oc1ccccc1)C(=O)N1CCc2ccccc21 (stereo not shown) [DCI-049] | 1.65% | 31.42% | –
5 | Nc1ccc(Br)cc1C(O)c1ccc(Cl)cc1 (stereo not shown) [DC-I032] | 63.02% | 33.85% | Inhibition ratio (%) @ 20 μM (human IDO1 protein): 25.26%
6 | O=c1c(-c2nc3ccccc3[nH]2)coc2cc(O)ccc12 [DCI-025] | 9.07% | 66.83% | –
7 | N#CCn1nc(-c2ccc(Cl)cc2)c2c1-c1ccccc1C2 [DCI-077] | 51.64% | 57.47% | –
8 | O=C1NN(c2ncnc3sc4c(c23)CCCC4)C(=O)c2cccc3cccc1c23 [DCI-064] | 6.57% | 36.33% | –
9 | CC(=O)c1nc2ccccc2[nH]1 [DCI-037] | 24.85% | 60.63% | –
10 | N#Cc1c(SCC(N)=O)nc2c(c1-c1cccnc1)CCC2 [DCI-007] | -0.85% | 44.80% | –
11 | COc1ccc(C(=O)NC(=S)Nc2c(O)ccc3ccccc23)cc1Br [DC-I02805] | – | – | Hela / Cellular IC50 (IDO1 in HeLa cells): No activity; inhibition at 20 µM (human IDO1 protein): 54.7%; pIC50 (human IDO1 protein): 4.86
12 | CC(=O)c1ccc(N2COc3ccc4ccccc4c3C2)cc1 [DC-I02801] | – | – | inhibition at 20 µM (human IDO1 protein): 17.8%
13 | Cc1sc2ncnc(SCC(=O)Nc3ccc(S(N)(=O)=O)cc3)c2c1C [DCI-017] | 37.65% | 48.33% | –
14 | COc1ccc(C(=O)NC(=S)Nc2cccc3cc(O)ccc23)cc1OC [DC-I02809] | – | – | inhibition at 20 µM (human IDO1 protein): 17.6%
15 | CCCC1CCc2c(c3ccccc3[nH]c2=O)O1 (stereo not shown) [DCI-030] | 11.57% | 45.02% | –
16 | Oc1ccc2ccccc2c1Sc1nnnn1-c1ccccc1 [DC-I02813] | – | – | inhibition at 20 µM (human IDO1 protein): 15.6%

Row | SMILES | Avg_Inh (%) @ 50uM (human IDO1 protein) | Background (%) (human IDO1 protein) | other results
17 | Cc1ccc(Cl)cc1N1COc2ccc3ccccc3c2C1 [DC-I02802] | – | – | pIC50 (IDO1 in HeLa cells): 4.25; inhibition at 20 µM (human IDO1 protein): 42.2%; pIC50 (human IDO1 protein): 4.35
18 | COc1cc(C(=O)Nc2ccc(S(N)(=O)=O)cc2)cc(OC)c1OC [DCI-088] | -0.32% | 43.06% | –
19 | Cc1cc(C)c(S(=O)(=O)N2CCC(C(N)=O)CC2)cc1C [DCI-087] | -2.50% | 34.87% | –
20 | CCOc1cc(C(=O)NC(=S)Nc2c(O)ccc3ccccc23)cc(OCC)c1OCC [DC-I02806] | – | – | pIC50 (IDO1 in HeLa cells): 4.74; inhibition at 20 µM (human IDO1 protein): 75.3%; pIC50 (human IDO1 protein): 4.73
21 | CCCCOc1cccc(-c2c(O)ccc3ccccc23)c1 [DC-I02811] | – | – | inhibition at 20 µM (human IDO1 protein): 8.19%
22 | Clc1ccc2[nH]cc(-c3nnnn3-c3ccccc3)c2c1 [DCI-004] | 49.29% | 38.90% | –
23 | CCn1c(SCC(=O)Nc2ccccc2[N+](=O)[O-])nnc1-c1ccc(O)cc1 [DCI-068] | 5.69% | 35.54% | –
25 | O=C1c2ccccc2NC(c2cccc([N+](=O)[O-])c2)N1O (stereo not shown) [DCI-058] | 4.69% | 37.75% | –
26 | O=c1[nH]c(CN2CCOCC2)nc2ccccc12 [DCI-081] | -6.95% | 38.30% | –
27 | Nc1ncnc2sc3c(c12)CCC3 [DCI-001] | -9.13% | 42.64% | –
28 | Oc1cccc(C(O)CNCc2c(Cl)cccc2Cl)c1 (stereo not shown) [DCI-052] | 3.32% | 31.34% | –
29 | O=C(Nc1ccccc1OCC1CCCO1)NC1CCCCC1 (stereo not shown) [DCI-050] | 0.29% | 31.57% | –
30 | CCCc1[nH]nc2c1C(c1cccc(O)c1)C(C#N)=C(N)O2 (stereo not shown) [DCI-043] | 1.84% | 30.60% | –
31 | CC(=O)N(C)c1ccc(-c2c(O)ccc3ccccc23)cc1 [DC-I02812] | – | – | inhibition at 20 µM (human IDO1 protein): 4.69%

Now from value to compound, other results behind:

Row | Avg_Inh (%) @ 50uM (human IDO1 protein) | Background (%) (human IDO1 protein) | SMILES | other results
32 | -6.47% | 41.00% | COc1ccc2ccccc2c1CNC(C)c1ccccc1 (stereo not shown) [DCI-091] | –
33 | 20.11% | 40.12% | O=C(NCC1CCCO1)c1ccc(COc2ccc3ccccc3c2)cc1 (stereo not shown) [DCI-015] | –
34 | 74.65% | 49.90% | O=[N+]([O-])c1ccccc1Sc1c(O)ccc2ccccc12 [DCI-072] | –
35 | 35.38% | 51.94% | O=C(OCc1ccc(Cl)cc1)c1cc2ccccc2cc1O [DCI-003] | –
36 | 11.86% | 36.51% | COc1ccc(CNC(=O)COc2ccc3ccccc3c2)cc1 [DCI-005] | –
37 | 44.52% | 40.43% | CCOc1nccc2sc3ccccc3c12 [DCI-044] | –
38 | 7.58% | 71.51% | COc1ccc(-c2nc(=O)cc(-c3ccccc3)o2)cc1 [DCI-048] | –
39 | 55.55% | 43.42% | COc1ccc2oc(C(O)c3c(C)oc4ccc(OC)cc34)cc2c1 (stereo not shown) [DCI-056] | –
40 | 82.33% | 55.25% | Clc1ccc(N2COc3ccc4ccccc4c3C2)cc1 [DC-I028] | pIC50 (IDO1 in HeLa cells): 4.05; inhibition at 20 µM (human IDO1 protein): 58%; Inhibition ratio (%) @ 50 μM (human IDO1 protein; 50 μM compound): 82%; pIC50 (human IDO1 protein): 4.67
41 | 2.22% | 51.96% | COc1ccc(/C=C\c2nccc3ccccc23)cc1OC [DCI-011] | –
42 | 59.00% | 48.79% | O=C1OC(c2ccccc2)c2ccc3ccccc3c21 (stereo not shown) [DCI-042] | –
43 | -3.23% | 48.38% | O=C(O)c1ccc(Cn2nnc3cc4ccccc4cc32)cc1 [DCI-080] | –
44 | 63.18% | 44.38% | O=C(COC(=O)c1ccc2ccccc2n1)c1ccc(Cl)cc1 [DC-I046] | Inhibition ratio (%) @ 20 μM (human IDO1 protein): 28.10%
45 | 72.23% | 50.76% | CCCn1c(=O)c(C(=O)Nc2ccccc2N)c(O)c2ccccc21 [DCI-041] | –
46 | 94.68% | 57.16% | O=S(=O)(c1ccc(N=Cc2c(O)ccc3ccccc23)cc1)N1CCCCC1 [DCI-100] | –
47 | 27.63% | 49.90% | Cc1cc2ccccc2n2c(SCC(=O)Nc3ccc(S(N)(=O)=O)cc3)nnc12 [DCI-099] | –
48 | 21.71% | 35.63% | CCc1ccc(OCC(=O)Nc2ccccc2C(N)=O)c(Br)c1 [DCI-074] | –
